Measured values as given in ChEMBL document CHEMBL5036362, “Salidroside Promotes Sensitization to Doxorubicin in Human Cancer Cells by Affecting the PI3K/Akt/HIF Signal Pathway and Inhibiting the Expression of Tumor-Resistance-Related Proteins” (J Nat Prod, 2022).
One block for each compound: values may come before it. Calls of active or inactive are those of the source. No cut-off for these calls is given here.

What was measured:
[1] = Induction of MDR1 gene expression in human HeLa cells by qRT-PCR analysis; type: functional
[2] = system: HeLa; experiment: Cytotoxicity against human HeLa cells assessed as reduction in cell viability measured after 48 hrs by CCK-8 assay; type: functional
[3] = system: HeLa; experiment: Induction of morphological change in human HeLa cells assessed as cell shrinkage measured after 48 hrs by CCK-8 assay; type: functional, cell-based
[4] = system: HeLa; experiment: Induction of morphological change in human HeLa cells assessed as reduction in size measured after 48 hrs by CCK-8 assay; type: functional, cell-based
[5] = system: HeLa; experiment: Antimigratory activity against human HeLa cells at 0.22 uM measured upto 48 hrs by electron microscope based Wound healing assay relative to control; type: functional; conditions: time hrs <=48
[6] = system: HeLa; experiment: Antitumor activity against human HeLa cells xenografted in BALB/c nude mouse assessed as tumor growth inhibition at 1 mg/kg, ip administered every 2 days for 18 days by firefly luciferase based bioluminescence assay; type: functional, organism-based; conditions: time 18.0 day
[7] = Toxicity in BALB/c nude mouse xenografted with human HeLa cells assessed as inflammation in myocardial tissue at 1 mg/kg, ip administered every 2 days for 18 days by H and E staining; type: organism-based, Myocardium/plasma; conditions: in vivo, 432 h, time 18 day
[8] = Toxicity in BALB/c nude mouse xenografted with human HeLa cells assessed as induction of convulsions at 1 mg/kg, ip administered every 2 days for 18 days; type: organism-based; conditions: in vivo, 432 h, time 18 day
[9] = Toxicity in BALB/c nude mouse xenografted with human HeLa cells assessed as induction of breathing difficulties at 1 mg/kg, ip administered every 2 days for 18 days; type: organism-based; conditions: in vivo, 432 h, time 18 day
[10] = Toxicity in BALB/c nude mouse xenografted with human HeLa cells assessed as induction of fainting at 1 mg/kg, ip administered every 2 days for 18 days; type: organism-based; conditions: in vivo, 432 h, time 18 day
[11] = Toxicity in BALB/c nude mouse xenografted with human HeLa cells assessed as induction of incontinence at 1 mg/kg, ip administered every 2 days for 18 days; type: organism-based; conditions: in vivo, 432 h, time 18 day
[12] = Toxicity in BALB/c nude mouse xenografted with human HeLa cells assessed as change in body weight at 1 mg/kg, ip administered every 2 days for 18 days; type: organism-based; conditions: in vivo, 432 h, time 18 day
[13] = system: HeLa; experiment: Cytotoxicity against human HeLa cells assessed as potentiation of doxorubicin induced cell survival measured after 72 hrs by CCK-8 assay; type: functional
[14] = Decrease in MDR1 gene expression in human HeLa cells by qRT-PCR analysis; type: functional; conditions: dose 0.017 mol/L; time 48 hrs
[15] = system: HeLa; experiment: Inhibition of hypoxia-inducible factor 1 alpha in DOX induced human HeLa cells assessed as downregulation of protein at 0.017 mmol/L after 48 hrs by Western blotting analysis; type: functional
[16] = system: Mus musculus; experiment: Effect on DOX induced tissue damage in BALB/c nude mouse xenografted with human HeLa cells assessed as spleen enlargement at 80 mg/kg, ig administered every 2 days for 18 days by H and E staining; type: functional, organism-based
[17] = system: Mus musculus; experiment: Effect on DOX induced tissue damage in BALB/c nude mouse xenografted with human HeLa cells assessed as appearance of lesions in glomerular tubule at 80 mg/kg, ig for administered every 2 days for 18 days by H and E staining; type: functional, organism-based; conditions: Renal glomerulus, time 18.0 day
[18] = system: Mus musculus; experiment: Effect on DOX induced tissue damage in BALB/c nude mouse xenografted with human HeLa cells assessed as inflammatory cell infiltration in liver at 80 mg/kg, ig administered every 2 days for 18 days by H and E staining; type: functional, organism-based; conditions: time 18.0 day
[19] = system: HeLa; experiment: Induction of morphological change in human HeLa cells assessed as potentiation of doxorubicin induced cell shrinkage measured after 48 hrs in by CCK-8 assay; type: functional, cell-based
[20] = system: HeLa; experiment: Induction of morphological change in human HeLa cells assessed as potentiation of doxorubicin induced reduction in size measured after 48 hrs in presence of doxorubicin by CCK-8 assay; type: functional, cell-based
[21] = system: HeLa; experiment: Antiproliferative activity against human HeLa cells assessed as inhibition of cell proliferation measured after 48 hrs by CCK-8 assay; type: functional, cell-based
[22] = system: HeLa; experiment: Antimigratory activity against human HeLa cells at 0.017 mmol/L measured upto 48 hrs by electron microscope based Wound healing assay relative to control; type: functional; conditions: time hrs <=48
[23] = system: HeLa; experiment: Inhibition of potentiation of doxorubicin induced cell migration in human HeLa cells measured upto 48 hrs by electron microscope based Wound healing assay relative to control; type: functional; conditions: time hrs <=48
[24] = system: HeLa; experiment: Antitumor activity against human HeLa cells xenografted in BALB/c nude mouse assessed as tumor growth inhibition at 80 mg/kg, ig for administered every 2 days for 18 days by firefly luciferase based bioluminescence assay; type: functional, organism-based; conditions: time 18.0 day
[25] = system: HeLa; experiment: Antitumor activity against human HeLa cells xenografted in BALB/c nude mouse assessed as potentiation of doxorubicin induced tumor growth inhibition at 80 mg/kg, ig administered every 2 days for 18 days by firefly luciferase based bioluminescence assay; type: functional, organism-based; conditions: time 18.0 day
[26] = Toxicity in BALB/c nude mouse xenografted with human HeLa cells assessed as potentiation of doxorubicin induced inflammation in myocardial tissue at 80 mg/kg, ig administered every 2 days for 18 days by H and E staining; type: organism-based, Myocardium/plasma; conditions: in vivo, po, 432 h, time 18 day
[27] = system: HeLa; experiment: Downregulation of Bcl-2 protein expression in human HeLa cells after 48 hrs by western blotting analysis; type: functional, cell-based
[28] = system: HeLa; experiment: Downregulation of MMP-2 protein expression in human HeLa cells after 48 hrs by western blotting analysis; type: functional, cell-based
[29] = system: HeLa; experiment: Downregulation of MMP-9 protein expression in human HeLa cells after 48 hrs by western blotting analysis; type: functional, cell-based
[30] = system: HeLa; experiment: Downregulation of PI3K protein expression in human HeLa cells after 48 hrs by western blotting analysis; type: functional, cell-based
[31] = system: HeLa; experiment: Downregulation of AKT protein expression in human HeLa cells after 48 hrs by western blotting analysis; type: functional, cell-based
[32] = system: HeLa; experiment: Upregulation of BAX protein expression in human HeLa cells after 48 hrs by western blotting analysis; type: functional, cell-based
[33] = system: HeLa; experiment: Downregulation of doxorubicin induced Bcl-2 protein expression in human HeLa cells after 48 hrs by western blotting analysis; type: functional, cell-based
[34] = system: HeLa; experiment: Downregulation of doxorubicin induced MMP-2 protein expression in human HeLa cells after 48 hrs by western blotting analysis; type: functional, cell-based
[35] = system: HeLa; experiment: Downregulation of doxorubicin induced MMP-9 protein expression in human HeLa cells after 48 hrs by western blotting analysis; type: functional, cell-based
[36] = system: HeLa; experiment: Downregulation of doxorubicin induced PI3K protein expression in human HeLa cells after 48 hrs by western blotting analysis; type: functional, cell-based
[37] = system: HeLa; experiment: Downregulation of doxorubicin induced AKT protein expression in human HeLa cells after 48 hrs by western blotting analysis; type: functional, cell-based
[38] = system: HeLa; experiment: Upregulation of doxorubicin induced BAX protein expression in human HeLa cells after 48 hrs by western blotting analysis; type: functional, cell-based
[39] = Decrease in MDR1 gene expression in DOX induced human HeLa cells by RT-PCR analysis; type: functional
[40] = Toxicity in BALB/c nude mouse xenografted with human HeLa cells assessed as induction of convulsions at 80 mg/kg, ig administered every 2 days for 18 days; type: organism-based; conditions: in vivo, po, 432 h, time 18 day
[41] = Toxicity in BALB/c nude mouse xenografted with human HeLa cells assessed as induction of breathing difficulties at 80 mg/kg, ig administered every 2 days for 18 days; type: organism-based; conditions: in vivo, po, 432 h, time 18 day
[42] = Toxicity in BALB/c nude mouse xenografted with human HeLa cells assessed as induction of fainting at 80 mg/kg, ig administered every 2 days for 18 days; type: organism-based; conditions: in vivo, po, 432 h, time 18 day
[43] = Toxicity in BALB/c nude mouse xenografted with human HeLa cells assessed as induction of incontinence at 80 mg/kg, ig administered every 2 days for 18 days; type: organism-based; conditions: in vivo, po, 432 h, time 18 day
[44] = Toxicity in DOX induced BALB/c nude mouse xenografted with human HeLa cells assessed as induction of convulsions at 80 mg/kg, ig administered every 2 days for 18 days; type: organism-based; conditions: in vivo, po, 432 h, time 18 day
[45] = Toxicity in DOX induced BALB/c nude mouse xenografted with human HeLa cells assessed as induction of breathing difficulties at 80 mg/kg, ig administered every 2 days for 18 days; type: organism-based; conditions: in vivo, po, 432 h, time 18 day
[46] = Toxicity in DOX induced BALB/c nude mouse xenografted with human HeLa cells assessed as induction of fainting at 80 mg/kg, ig administered every 2 days for 18 days; type: organism-based; conditions: in vivo, po, 432 h, time 18 day
[47] = Toxicity in DOX induced BALB/c nude mouse xenografted with human HeLa cells assessed as induction of incontinence at 80 mg/kg, ig administered every 2 days for 18 days; type: organism-based; conditions: in vivo, po, 432 h, time 18 day
[48] = Toxicity in BALB/c nude mouse xenografted with human HeLa cells assessed as change in body weight at 80 mg/kg, ig administered every 2 days for 18 days; type: organism-based; conditions: in vivo, po, 432 h, time 18 day
[49] = Toxicity in DOX induced BALB/c nude mouse xenografted with human HeLa cells assessed as change in body weight at 80 mg/kg, ig administered every 2 days for 18 days; type: organism-based; conditions: in vivo, po, 432 h, time 18 day
[50] = system: HeLa; experiment: Antitumor activity against DOX induced human HeLa cells xenografted in BALB/c nude mouse assessed as induction of apoptosis by measuring increase in TUNEL positive nuclei at 80 mg/kg, ig administered every 2 days for 18 days by TUNEL staining based assay; type: functional, organism-based; conditions: time 18.0 day

Compound: COc1cccc2c1C(=O)c1c(O)c3c(c(O)c1C2=O)C[C@@](O)(C(=O)CO)C[C@@H]3O[C@H]1C[C@H](N)[C@H](O)[C@H](C)O1 [DOXORUBICIN]
Activity [1]: 8.69
Activity [2]: 2.67 µM
Activity [3]: Active
Activity [4]: Active
Activity [5]: 57.14%
Activity [6]: inactive
Activity [7]: Toxic
Activity [8]: Non-Toxic
Activity [9]: Non-Toxic
Activity [10]: Non-Toxic
Activity [11]: Non-Toxic
Activity [12]: Non-Toxic

IC50 [21]: 10.5 µM
Compound: OC[C@H]1O[C@@H](OCCc2ccc(O)cc2)[C@H](O)[C@@H](O)[C@@H]1O [SALIDROSIDE]
Activity [13]: >85%
Activity [14]: 1.65
Activity [2]: 0.183 µM
Activity [15]: Active
Activity [16]: inactive
Activity [17]: inactive
Activity [18]: inactive
Activity [3]: Active
Activity [4]: Active
Activity [19]: Active
Activity [20]: Active
Activity [22]: 56.34%
inhibition (INH) [23]: 18.95%
Activity [24]: Active
Activity [25]: Active
Activity [26]: Non-Toxic
Activity [27]: Active
Activity [28]: Active
Activity [29]: Active
Activity [30]: Active
Activity [31]: Active
Activity [32]: Active
Activity [33]: Active
Activity [34]: Active
Activity [35]: Active
Activity [36]: Active
Activity [37]: Active
Activity [38]: Active
Activity [39]: 2.76
Activity [40]: Non-Toxic
Activity [41]: Non-Toxic
Activity [42]: Non-Toxic
Activity [43]: Non-Toxic
Activity [44]: Non-Toxic
Activity [45]: Non-Toxic
Activity [46]: Non-Toxic
Activity [47]: Non-Toxic
Activity [48]: Non-Toxic
Activity [49]: Non-Toxic
Activity [50]: Active
